In patent publication US20240116985A1, “STAPLED PEPTIDES AND METHODS THEREOF” (priority 2020, published 2024):
In brackets after ≈: the same amount, converted by molar mass. Where two headings read alike, the source gives them in different places.

Experiments:
Solubility in PBS = type: physicochemical
Procedure, shortened: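 Solubility is derived from HPLC peak areas: the ratio of the PBS supernatant peak to a 50 μM DMSO peptide peak, times 50 uM.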

[1] = system: TCF/LEF luciferase Reporter in DLD1 cells; assay: TCF reporter assay (DLD1 TCF/LEF luciferase reporter, Bright-Glo); type: cell-based
Procedure, shortened: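 DLD1 cells stably carrying a TCF/LEF luciferase reporter were plated at 5000 cells/well in RPMI + 4% FBS and treated overnight with a 1:2 compound dilution series. Bright-Glo luminescence read on day 3; viability by CellTiter-Glo. Absolute IC50 determined.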

[2] = biological target: T1, full-length beta-Catenin (Uniprot ID P35222) (Homo sapiens, UniProt P35222); assay: Fluorescence polarization IC50 (beta-catenin / 5FAM-TCF4 10-53 competition); type: binding
T1 construct: 10 nM full-length beta-Catenin (Uniprot ID P35222)
T1 sequence (P35222 1-781): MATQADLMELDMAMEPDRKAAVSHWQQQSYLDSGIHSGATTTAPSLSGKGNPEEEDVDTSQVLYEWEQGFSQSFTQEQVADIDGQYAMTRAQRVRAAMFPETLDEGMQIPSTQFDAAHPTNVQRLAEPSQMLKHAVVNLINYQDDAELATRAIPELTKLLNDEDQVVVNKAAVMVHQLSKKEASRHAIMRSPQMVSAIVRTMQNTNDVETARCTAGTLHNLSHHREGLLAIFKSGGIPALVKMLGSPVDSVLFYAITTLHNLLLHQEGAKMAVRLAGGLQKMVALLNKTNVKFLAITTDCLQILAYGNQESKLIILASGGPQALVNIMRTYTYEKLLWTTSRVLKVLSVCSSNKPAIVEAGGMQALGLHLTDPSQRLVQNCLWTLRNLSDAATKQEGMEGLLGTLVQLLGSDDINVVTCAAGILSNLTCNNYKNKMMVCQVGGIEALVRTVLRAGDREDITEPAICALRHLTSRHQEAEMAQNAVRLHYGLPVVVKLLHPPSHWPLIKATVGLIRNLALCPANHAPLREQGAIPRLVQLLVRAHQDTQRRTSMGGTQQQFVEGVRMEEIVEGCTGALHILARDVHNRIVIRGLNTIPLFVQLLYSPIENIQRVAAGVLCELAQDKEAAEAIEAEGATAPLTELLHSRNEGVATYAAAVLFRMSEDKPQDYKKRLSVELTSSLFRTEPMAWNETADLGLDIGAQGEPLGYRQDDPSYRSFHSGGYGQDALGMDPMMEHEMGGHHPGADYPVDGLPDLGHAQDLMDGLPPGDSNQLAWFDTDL

[3] = biological target: T2, beta-catenin/TCF4 engagement (Homo sapiens, UniProt P35222); assay: Nano-BRET target engagement assay (B-cat-Halo & TCF4-Luc in HEK293 cells); type: cell-based
T2 construct: expressed in transfected cells; host or cells: HEK293
T2 sequence (P35222 1-781): T1 sequence (P35222 1-781)

COLO320DM cells = type: cell-based; settings: read-out: COLO320DM Proliferation Abs IC50
Procedure, shortened: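 COLO320DM cells at 250 cells/well in RPMI-1640 + 4% HI FBS, dosed after 18–22 h with a 7-point […] 1/2 dilution series from 20 uM down to 313 nM.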

CHI Log D procedure = type: physicochemical; settings: pH 7.4, CHI Log D
[4] = read-out: DLD1 4% Abs IC50, DLD1 4%
[5] = fluorescence polarization, beta-catenin, read-out: FP EC50
[6] = absolute IC50, read-out: NanoBRET Abs IC50

Row | SMILES | Solubility (Solubility in PBS; Solubility (uM)) | IC50 ([1]; Peptide + ST-Protein (SAINT-Protein lipid), read-out: TCF Reporter Assay Abs IC50) | IC50 ([1]; Peptide only, read-out: TCF Reporter Assay Abs IC50) | IC50 ([1]; absolute IC50, read-out: DLD1 reporter assay Abs IC50) | IC50 [1, 4] | IC50 [2, 5] | IC50 ([2]; read-out: beta-Catenin FP IC50) | IC50 ([3]; Peptide + ST-Protein (SAINT-Protein lipid), read-out: Nano-BRET Abs IC50) | IC50 ([3]; Peptide only, read-out: Nano-BRET Abs IC50) | IC50 [3, 6] | IC50 ([3]; read-out: NanoBRET Abs IC50) | IC50 (COLO320DM cells) | chromatographic logD (CHI Log D procedure) | IC50 ([1]; read-out: DLD1 4% Abs IC50, DLD1 reporter, 4%, absolute IC50) | IC50 ([2]; fluorescence polarization, read-out: beta-Catenin FP IC50) | IC50 (COLO320DM cells; COLO320DM cells, absolute IC50) | Solubility (Solubility in PBS) | IC50 ([3]; read-out: NanoBRET IC50)
1 | CC(=O)N1CCC[C@]12CC=CCCCC1(CCCC=CCCCOC(=O)N3CC[C@@](C(=O)N[C@@H](Cc4ccccc4Cl)C(=O)N[C@@H](Cc4csc5ccccc45)C(=O)N[C@@H](CCO)C(N)=O)(C3)NC(=O)[C@H](CCO)NC(=O)[C@H](Cc3ccccc3)NC(=O)[C@H](C)NC(=O)[C@H](C)NC(=O)[C@H](CN(CC(=O)O)CC(F)(F)F)NC(=O)[C@H](CC(=O)O)NC1=O)NC(=O)[C@H](CC(C)(C)C)NC(=O)[C@H](CC(=O)O)NC2=O (stereo partly drawn) [I-993, Ac-PL3-Asp-Npg-B5-Asp-TfeGA-Ala-Ala-Phe-Hse-PyrS2-2C1F-BztA-Hse-NH2] | 41 µM (≈ 82.7 µg/mL) | 0.2 µM | 5 µM | 4.4 µM | 1.8 µM | 0.012 µM | 0.018 µM | 0.9 µM | 7 µM | 4 µM | 4.9 µM | 3.6 µM | 2.33 |  |  |  |  | 
2 | CC[C@@H]1NC(=O)[C@H](Cc2ccccc2)NC(=O)[C@H](C)NC(=O)C(C)(C)NC(=O)[C@H](Cc2cccc(C(=O)O)c2)NC(=O)[C@H](CC(=O)O)NC(=O)C2(CCCC=CCCCOC(=O)N3CC[C@@](C(=O)N[C@@H](Cc4ccsc4)C(=O)N[C@@H](Cc4csc5ccccc45)C(=O)N[C@@H](CCC(=O)N(C)C)C(=O)N[C@@H](C)C(N)=O)(C3)NC1=O)CCCC=CC[C@]1(CCCN1C(C)=O)C(=O)N[C@@H](CC(=O)O)C(=O)N[C@@H](CC(C)(C)C)C(=O)N2 (stereo partly drawn) [I-2469, Ac-PL3-Asp-Npg-B5-Asp-3COOHF-Aib-Ala-Phe-Abu-PyrS2-3Thi-BztA-Me2Gln-Ala-NH2] |  |  |  |  |  |  |  |  |  | 2.3 µM |  |  |  | 0.6 µM | 0.007 µM | 5.6 µM |  | 
3 | CC(=O)N1CCC[C@]12CC=CCCCC1(CCCC=CCCCOC(=O)N3CC[C@@](C(=O)N[C@@H](Cc4ccsc4)C(=O)N[C@@H](Cc4csc5ccccc45)C(=O)N[C@@H](CCC(N)=O)C(N)=O)(C3)NC(=O)[C@H](CC(C)C)NC(=O)[C@H](Cc3ccccc3)NC(=O)[C@H](C)NC(=O)[C@H](C)NC(=O)[C@H](CC(=O)O)NC(=O)[C@H](CC(=O)O)NC1=O)NC(=O)[C@H](CC(C)(C)C)NC(=O)[C@H](CC(=O)O)NC2=O (stereo partly drawn) [I-801, Ac-PL3-Asp-Npg-B5-Asp-Asp-Ala-Ala-Phe-Leu-PyrS2-3Thi-BztA-Gln-NH2] |  |  |  |  | 4.3 µM | 0.006 µM | 0.007 µM |  |  |  | 5.8 µM | > 20 µM | 2.21 |  |  |  | 50 µM (≈ 95.9 µg/mL) | 6.8 µM
